Source: US6372488B1, “AMPA-binding human GluR4 receptors” (NPS Allelix Corp., priority 1992, dated 2002)

Target: T1, human GluR4B receptor (Homo sapiens, UniProt P48058)
T1 construct: transported to the cell surface in mature form, lacking the signal peptide and consisting of 881 amino acids; expressed in transfected cells; host or cells: COS-1 cells (ATCC CRL 1650), transient, plasmid pcDNAI/humGluR4B
Experiment: ligand binding assay (NMDA), membranes of human GluR4B receptor-producing COS cells
Conditions: COS cell membrane preparation

T1 sequence (P48058 21-902): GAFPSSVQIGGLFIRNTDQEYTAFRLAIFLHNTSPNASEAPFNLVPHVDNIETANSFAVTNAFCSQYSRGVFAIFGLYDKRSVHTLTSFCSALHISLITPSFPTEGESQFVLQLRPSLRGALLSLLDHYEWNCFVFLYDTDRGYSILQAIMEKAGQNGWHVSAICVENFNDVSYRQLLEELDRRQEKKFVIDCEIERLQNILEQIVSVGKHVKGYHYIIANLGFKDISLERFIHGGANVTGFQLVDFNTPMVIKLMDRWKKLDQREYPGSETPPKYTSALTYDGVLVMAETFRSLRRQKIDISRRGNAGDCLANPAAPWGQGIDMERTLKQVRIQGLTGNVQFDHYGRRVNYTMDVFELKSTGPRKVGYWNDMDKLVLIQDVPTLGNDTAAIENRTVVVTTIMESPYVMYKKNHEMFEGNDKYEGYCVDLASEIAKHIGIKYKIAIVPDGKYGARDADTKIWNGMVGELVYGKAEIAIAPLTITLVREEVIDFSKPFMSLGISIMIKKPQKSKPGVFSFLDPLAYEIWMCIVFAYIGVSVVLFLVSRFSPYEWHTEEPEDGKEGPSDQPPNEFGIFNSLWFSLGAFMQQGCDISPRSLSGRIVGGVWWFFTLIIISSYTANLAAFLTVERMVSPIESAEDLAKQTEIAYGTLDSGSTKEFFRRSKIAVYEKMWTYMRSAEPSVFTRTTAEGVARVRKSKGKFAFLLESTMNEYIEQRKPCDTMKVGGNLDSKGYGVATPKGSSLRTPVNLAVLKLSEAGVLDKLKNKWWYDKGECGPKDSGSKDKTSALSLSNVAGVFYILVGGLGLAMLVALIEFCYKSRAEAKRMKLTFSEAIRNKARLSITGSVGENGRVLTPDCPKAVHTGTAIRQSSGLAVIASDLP

CN[C@H](CC(=O)O)C(=O)O [NMDA, N-methyl-D-aspartate]
binding of NMDA to human GluR4B receptor: little or no demonstrable binding
